Patent US6635641B2 (Agouron Pharmaceuticals, Inc., priority 2000, dated 2003)
Where two headings read alike, the source gives them in different places.

What was measured:
[1] = test system: human umbilical vein endothelial cells (HUVEC); assay: HUVEC proliferation assay (VEGF-stimulated, MTT); format: cell-based; conditions: Homo sapiens
How it was run: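 Proliferation measured by MTT reduction (4 h exposure, absorbance at 595) 72 hours after VEGF stimulation (final 6 ng/ml). Compound added to 24 h-starved HUVEC in F12K with 1% FBS and 0.1% final DMSO, one hour before the growth factor.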

[2] = molecular target: T1, FGF-R1 intracellular kinase domain (Homo sapiens, UniProt P11362, C488A/C584S/L457V); assay: FGF-R spectrophotometric assay; format: biochemical; conditions: for inhibition at 1 µM: read-out: FGF-P percent inhibition
T1 construct: starting from the endogenous methionine residue 456 to glutamate 766; made in house; host or cells: baculovirus expression system
T1 sequence (P11362 456-766 L457V/C488A/C584S): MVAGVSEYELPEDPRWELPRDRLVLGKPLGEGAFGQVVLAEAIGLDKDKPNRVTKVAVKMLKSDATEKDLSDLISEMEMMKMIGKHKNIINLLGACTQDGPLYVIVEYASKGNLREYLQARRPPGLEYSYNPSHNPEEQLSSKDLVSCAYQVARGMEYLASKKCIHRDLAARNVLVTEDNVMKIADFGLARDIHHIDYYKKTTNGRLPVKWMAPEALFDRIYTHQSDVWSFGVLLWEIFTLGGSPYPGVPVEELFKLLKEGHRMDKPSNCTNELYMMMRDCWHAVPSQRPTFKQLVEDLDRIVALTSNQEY

[3] = molecular target: T2, unphosphorylated VEGF-R2Δ50 (FLVK) (Homo sapiens, UniProt P35968, DEL940-989/E990V); assay: VEGF-R2 coupled spectrophotometric assay, unphosphorylated construct (FLVK); format: biochemical;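 note: Baculovirus-expressed cytosolic kinase domain, ADP formation linked via pyruvate kinase and lactate dehydrogenase to NADH oxidation, read as falling absorbance at 340 nm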
T2 construct: VEGF-R2Δ50 contains residues 806-939 and 990-1171; made in house; host or cells: baculovirus/insect cells
T2 sequence (P35968 with tags, fused parts or gaps DEL940-989/E990V limits assumed): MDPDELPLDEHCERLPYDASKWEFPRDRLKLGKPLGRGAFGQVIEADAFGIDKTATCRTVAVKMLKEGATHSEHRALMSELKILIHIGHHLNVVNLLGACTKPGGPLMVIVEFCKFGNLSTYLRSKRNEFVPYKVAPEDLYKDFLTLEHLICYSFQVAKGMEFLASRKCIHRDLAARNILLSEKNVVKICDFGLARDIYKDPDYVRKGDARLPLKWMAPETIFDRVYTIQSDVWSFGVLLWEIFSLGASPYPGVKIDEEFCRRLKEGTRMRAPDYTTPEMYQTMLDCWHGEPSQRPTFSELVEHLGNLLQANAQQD

LCK tyrosine kinase = molecular target: T3, LCK tyrosine kinase (Homo sapiens, UniProt P06239, C224D/P223M); assay: LCK spectrophotometric assay; format: biochemical; conditions: for inhibition at 1 µM: read-out: LCK-P percent inhibition; for Ki: read-out: LCK-P Ki;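 for all read-outs here: recombinant LCK kinase activity on poly(E4Y1), ADP formation coupled through PK/LDH to NADH oxidation, followed as absorbance loss at 340 nm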
T3 construct: starting from amino acid residue 223 to the end of the protein at residue 509; made in house; host or cells: insect cells
T3 sequence (P06239 223-509 P223M/C224D): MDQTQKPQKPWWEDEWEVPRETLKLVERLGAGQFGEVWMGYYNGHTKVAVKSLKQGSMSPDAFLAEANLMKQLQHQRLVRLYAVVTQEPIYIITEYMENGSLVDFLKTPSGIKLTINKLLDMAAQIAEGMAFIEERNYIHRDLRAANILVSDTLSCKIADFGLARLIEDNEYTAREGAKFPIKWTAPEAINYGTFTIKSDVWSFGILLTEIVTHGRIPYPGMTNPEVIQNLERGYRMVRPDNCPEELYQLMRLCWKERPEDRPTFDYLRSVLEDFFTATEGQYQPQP

[4] = test system: lung cancer cells (line MV522); assay: Cancer cell proliferation (MV522) assay (MTT); format: cell-based
How it was run: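 Proliferation was read by MTT reduction 72 h after compound addition, in a 4-day protocol with no starvation step. Two thousand MV522 cells were seeded in RPMI1640 with 10% FBS and 2 mM glutamine and given 1 day to attach before dosing.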

[5] = molecular target: T4, TEK/Tie-2 intracellular kinase domain (Homo sapiens, UniProt Q02763); assay: TEK/Tie-2 spectrophotometric assay; format: biochemical; conditions: read-out: TEK-P percent inhibition
T4 construct: residues 775 to 1124, with methionine added at the N-terminus; made in house; host or cells: baculovirus expression system
T4 sequence (Q02763 775-1124): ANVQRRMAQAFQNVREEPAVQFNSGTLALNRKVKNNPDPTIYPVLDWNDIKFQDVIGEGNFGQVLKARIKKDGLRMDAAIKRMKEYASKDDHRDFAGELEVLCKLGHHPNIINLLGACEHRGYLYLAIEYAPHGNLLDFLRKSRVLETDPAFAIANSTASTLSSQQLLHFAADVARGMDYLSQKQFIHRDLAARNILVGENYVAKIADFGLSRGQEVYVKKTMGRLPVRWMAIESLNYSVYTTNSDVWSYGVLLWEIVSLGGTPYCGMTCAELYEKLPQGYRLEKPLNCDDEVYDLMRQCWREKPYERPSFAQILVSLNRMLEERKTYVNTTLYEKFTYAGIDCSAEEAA
Method: The intracellular kinase domain (residues 775 to 1124, with methionine added at the N-terminus) of human TEK/Tie-2 was expressed using the baculovirus vector expression system. For assay purposes, the enzyme was autophosphorylated prior to use by incubation overnight at 4° C., at 10 μM enzyme concentration, with 4 mM ATP, 40 mM MgCl2, and 5 mM DTT in 200 mM Hepes buffer at ph 7.5, in 90:10 water:glycerol.
The production of ADP from ATP that accompanies phosphoryl transfer was coupled to oxidation of NADH using phosphoenolpyruvate (PEP) and a system having pyruvate kinase (PK) and lactic dehydrogenase (LDH). The oxidation of NADH was monitored by following the decrease of absorbance at 340 nm (e340=6.22 cm^−1 mM^−1) using a Beckman DU 650 spectrophotometer. Assay conditions for phosphorylated VEGF-R2Δ50 (indicated as FLVK-P in the tables below) were the following: 1 mM PEP; 250 μM NADH; 50 units of LDH/mL; 20 units of PK/mL; 5 mM DTT; 5.1 mM poly(E4Y1); 1 mM ATP; and 25 mM MgCl2 in 200 mM Hepes, pH 7.5. Assay conditions for unphosphorylated VEGF-R2Δ50 (indicated as FLVK in the tables) were the following: 1 mM PEP; 250 μM NADH; 50 units of LDH/mL; 20 units of PK/mL; 5 mM DTT; 20 mM poly(E4Y1); 3 mM ATP; and 60 mM MgCl2 and 2 mM MnCl2 in 200 mM Hepes, pH 7.5. Assays were initiated with 5 to 40 nM of enzyme. Ki values were determined by measuring enzyme activity in the presence of varying concentrations of test compounds. The data were analyzed using Enzyme Kinetic and Kaleidagraph software.
The spectrophotometric assay was carried out as described above for VEGF-R2, except for the following changes in concentration: TEK/Tie-2=200 nM, MgCl2=40 mM, and ATP=2 mM.

[6] = molecular target: T5, phosphorylated VEGF-R2Δ50 (FLVK-P) (Homo sapiens, UniProt P35968, DEL940-989/E990V); assay: VEGF-R2 coupled spectrophotometric assay, phosphorylated construct (FLVK-P); format: biochemical
T5 construct: VEGF-R2Δ50 contains residues 806-939 and 990-1171; made in house; host or cells: baculovirus/insect cells
T5 sequence (P35968 with tags, fused parts or gaps DEL940-989/E990V limits assumed): as the sequence (P35968 with tags, fused parts or gaps DEL940-989/E990V limits assumed) above
How it was run: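 Continuous PK/LDH-coupled spectrophotometric read (NADH loss at 340 nm) with 5–40 nM enzyme in 200 mM Hepes pH 7.5. Phosphorylated construct run at 1 mM ATP, 25 mM MgCl2, 5.1 mM poly(E4Y1); unphosphorylated at 3 mM ATP, 60 mM MgCl2 plus 2 mM MnCl2, 20 mM poly(E4Y1). Ki values derived from varied inhibitor concentrations.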

[7] = VEGF-stimulated HUVEC proliferation, read-out: HUVEC IC50
[8] = unphosphorylated VEGF-R2 construct
[9] = HUVEC, with albumin, read-out: Huvec + Albumin IC50
[10] = HUVEC proliferation with albumin, read-out: Huvec + Albumin IC50

inhibition at 1 µM [2] | Ki [3, 8] | melting point | inhibition at 1 µM (LCK tyrosine kinase) | inhibition at 0.05 µM ([3]; @ 50 nM, read-out: FLVK percent inhibition) | Ki [3] | IC50 ([4]; MV522) | Ki ([2]; read-out: FGF-P Ki) | Ki (LCK tyrosine kinase) | inhibition at 1 µM [5] | Ki [6] | IC50 ([4]; MV522 lung cancer cells) | SMILES | IC50 [1, 7] | IC50 ([1]; HUVEC, read-out: HUVEC IC50) | IC50 [1, 9] | IC50 [1, 10]
56% | 0.7 nM | 205 to 210 °C | 65% | – | – | – | – | – | – | – | – | CC(C)(C)c1cc(C(=O)Nc2cccc(SCc3cncc4ccccc34)c2)ccc1O.Cl [Example W-3, 3-t-Butyl-4-hydroxy-N-[3-(isoquinolin-4-ylmethylsulfanyl)-phenyl]-benzamide] | 220 nM | – | – | –
30% | – | 163 to 167 °C | 59% | 59% | – | – | – | – | – | – | – | O=C(Nc1cc(Cl)c(N2CCCC2)c(Cl)c1)c1ccc(F)c(OCc2cccnc2)c1 [Example R-11, N-(3,5-Dichloro-4-pyrrolidin-1-yl-phenyl)-4-fluoro-3-(pyridin-3-ylmethoxy)-benzamide] | – | 31 nM | – | –
7% | – | 123 to 131 °C | 5% | – | 16.5 nM | 1800 nM | – | – | – | – | – | O=C(Nc1ccc(N2CCNCC2)c(C(F)(F)F)c1)c1ccc(F)c(OCc2cccnc2)c1 [Example R-13, 4-Fluoro-N-[4-(piperazin-1-yl)-3-trifluoromethylphenyl]-3-(pyridin-3-yl)methoxybenzamide] | – | 19 nM | 120 nM | –
– | – | – | – | – | 0.68 nM | > 10000 nM | 57 nM | 10.5 nM | 17% | – | – | COc1ccc(Nc2cc(COc3cc(C(=O)Nc4ccc(N5CCCC5)c(C(F)(F)F)c4)ccc3F)[nH]n2)cn1 [Example J-2, 4-Fluoro-3-[5-(6-methoxy-pyridin-3-yl)amino-2H-pyrazol-3-yl]methoxy-N-(4-pyrrolidin-1-yl-3-trifluoromethyl-phenyl)-benzamide] | – | 26 nM | 180 nM | –
33% | – | – | 48% | – | 3 nM | 5100 nM | – | – | – | 2.6 nM | – | COc1ccc(Nc2cc(CCc3cccc(C(=O)Nc4ccc(N5CCNCC5)c(C(F)(F)F)c4)c3)[nH]n2)cn1 [Example G-10] | – | 5.7 nM | 180 nM | –
68% | – | – | – | – | 0.35 nM | > 10000 nM | – | 69 nM | – | 1.86 nM | – | COc1ccc(Nc2cc(CCc3cccc(C(=O)Nc4ccc(N(C)C)c(C(F)(F)F)c4)c3)[nH]n2)cn1 [Example G-5, N-(4-Dimethylamino-3-trifluoromethylphenyl)-3-{2-[5-(6-methoxypyridin-3-yl)amino-2H-pyrazol-3-yl]ethyl}-benzamide] | – | 8.4 nM | – | –
69% | – | – | 84% | – | 0.86 nM | 1400 nM | – | – | 56% | – | – | O=C(Nc1ccc(N2CCNCC2)c(C(F)(F)F)c1)c1cccc(CCc2cc(/C=C/c3cccnc3)n[nH]2)c1 [Example F-5] | – | 4.1 nM | 17 nM | –
96% | – | 175 to 180 °C | 87% | – | 3.4 nM | 5700 nM | – | – | – | – | – | Cl.O=C(Nc1ccc(N2CCOCC2)c(C(F)(F)F)c1)c1ccc(F)c(OCc2cncc3ccccc23)c1 [Example R-14, 4-Fluoro-N-(4-morpholin-4-yl-3-trifluoromethyl-phenyl)-3-(isoquinolin-4-ylmethoxy)-benzamide] | – | 14 nM | 345 nM | –
28% | 1.5 nM | 105 to 111 °C | 59% | – | – | – | – | – | – | – | – | CC(C)(C)c1cc(C(=O)Nc2cccc(OCc3cncc(Br)c3)c2)ccc1O [Example X-1, N-[3-(5-Bromo-pyridin-3-ylmethoxy)-phenyl]-3-t-butyl-4-hydroxy-benzamide] | 27 nM | – | – | 330 nM
77% | – | – | – | – | 0.1 nM | > 10000 nM | – | 72 nM | – | 0.79 nM | – | COc1ccc(Nc2cc(CCc3cccc(C(=O)Nc4ccc(C(C)C)c(C)c4)c3)[nH]n2)cn1 [Example G-4, N-(4-Isopropyl-3-methyl-phenyl)-3-{2-[5-(6-methoxypyridin-3-yl)amino-2H-pyrazol-3-yl]-ethyl}-benzamide] | – | 16 nM | – | –
91% | – | 150 to 151 °C | – | – | – | > 10000 nM | – | 11.2 nM | – | 0.197 nM | – | Cc1cc(NC(=O)c2cccc(CCc3cc(Nc4ccccc4)n[nH]3)c2)ccc1C(C)C [Example G-3, N-(4-isopropyl-3-methylphenyl)-3-[2-(5-phenylamino-2H-pyrazol-3-yl)ethyl]benzamide] | – | 9.8 nM | 280 nM | –
83% | – | – | 41% | – | 0.19 nM | > 10000 nM | – | – | – | 1.19 nM | – | Cc1cc(NC(=O)c2cccc(C3CC3c3cc(Nc4ccccc4)n[nH]3)c2)ccc1C(C)C (stereo not shown) [Example H-1, N-(4-Isopropyl-3-methyl-phenyl)-3-[2-(5-phenylamino-2-H-pyrazol-3-yl)cyclopropyl]-benzamide] | – | 27 nM | – | –
37% | 0.045 nM | – | 22% | – | – | – | – | – | 40% | – | – | CC(C)(C)c1cc(C(=O)Nc2cccc(CSc3ncnc4[nH]ncc34)c2)ccc1O [Example V-4, N-{3-[(1H-pyrazolo[3,4-d]-pyrimidin-4-yl)sulfanylmethyl]phenyl}-(4-hydroxy-3-t-butyl)benzamide] | 27 nM | – | – | > 1000 nM
11% | 4.1 nM | 104 to 107 °C | 11% | – | – | – | – | – | – | – | 6100 nM | CC(C)(C)c1cc(C(=O)Nc2cccc(OCc3cccnc3)c2)ccc1O [Example X-4, 3-t-Butyl-4-hydroxy-N-[3-(pyridin-3-ylmethoxy)-phenyl]-benzamide] | 71 nM | – | – | > 1000 nM
62% | – | 160 to 161 °C | 45% | – | 4.4 nM | 5900 nM | – | – | – | – | – | O=C(Nc1ccc(N2CCOCC2)c(C(F)(F)F)c1)c1ccc(F)c(OCc2cccnc2)c1 [Example R-12, 4-Fluoro-N-(4-morpholin-4-yl-3-trifluoromethyl-phenyl)-3-(pyridin-3-ylmethoxy)-benzamide] | – | 15 nM | – | –
18% | 1.5 nM | 95 to 100 °C | 19% | – | – | – | – | – | – | – | – | CC(C)(C)c1cc(C(=O)Nc2cccc(SCc3cccnc3)c2)ccc1O [Example W-2, 3-t-Butyl-4-hydroxy-N-[3-(pyridin-3-ylmethylsulfanyl)-phenyl]-benzamide] | 120 nM | – | – | –
